# According to BindingDB's records for doi:10.1021/cb500143h (Tottori University , Yonago 683-8503, Japan, 2014):
# Molecular target: T1, Alpha-galactosidase A (Homo sapiens, UniProt P06280)
# T1 sequence (P06280 whole entry): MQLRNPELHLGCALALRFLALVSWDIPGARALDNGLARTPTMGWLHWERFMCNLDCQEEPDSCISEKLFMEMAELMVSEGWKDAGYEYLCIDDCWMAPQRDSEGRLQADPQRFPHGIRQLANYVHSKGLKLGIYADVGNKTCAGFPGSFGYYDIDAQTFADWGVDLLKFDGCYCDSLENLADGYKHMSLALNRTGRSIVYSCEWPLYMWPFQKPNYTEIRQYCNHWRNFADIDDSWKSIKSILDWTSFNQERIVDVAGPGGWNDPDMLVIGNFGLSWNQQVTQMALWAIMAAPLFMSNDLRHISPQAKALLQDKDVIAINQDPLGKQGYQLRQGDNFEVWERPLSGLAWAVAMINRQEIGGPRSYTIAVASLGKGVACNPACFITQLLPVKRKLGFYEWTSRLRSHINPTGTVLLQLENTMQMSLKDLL
# Test: α-Gal A Assay
IC50 (pH 5),IC50 (pH 7),SMILES
74 nM,16 nM,COc1ccc(NC(=S)N2C[C@H](O)[C@@H](O)[C@@H](O)[C@H]2CO)cc1 [DGJ-pMe OPhT]
20300 nM,4410 nM,OC[C@@H]1[C@H](O)[C@H](O)[C@@H](O)CN1C(=S)NCc1ccccc1 [DGJ-BnT]
1600 nM,370 nM,OC[C@@H]1[C@H](O)[C@H](O)[C@@H](O)CN1C(=S)Nc1cccc2ccccc12 [DGJ-NphT]
340 nM,43 nM,OC[C@@H]1[C@H](O)[C@H](O)[C@@H](O)CN1C(=S)Nc1ccc(F)cc1 [DGJ-pF PhT]
8.3 nM,1.4 nM,CSc1ccc(NC(=S)N2C[C@H](O)[C@@H](O)[C@@H](O)[C@H]2CO)cc1 [DGJ-pMe SPhT]
9670 nM,2180 nM,O[C@@H]1[C@@H](O)CN2/C(=N\c3ccc(F)cc3)SCC2[C@@H]1O (some centres not stated) [pF PhIM-DGJ]
